Source: publication PMC5423977, “Safety, pharmacokinetics, and pharmacodynamics of BMS-986142, a novel reversible BTK inhibitor, in healthy participants” (European Journal of Clinical Pharmacology, 2017)

Columns and labels:
[1] = Safety and tolerability (adverse events), Study 1 MAD in healthy participants; format: in vivo, human
CD69 expression = test system: CD69 expression; design: method as in PMID 27583770; conditions: in vitro; read-out: IC50 of CD69 inhibition derived from in vitro evaluation; cited from earlier work
[2] = Study 1 MAD group, BMS-986142-treated
[3] = Study 1 MAD, all BMS-986142 doses, n = 24

With `Cc1c(-c2c(F)cc(C(N)=O)c3[nH]c4c(c23)CC[C@H](C(C)(C)O)C4)cccc1-n1c(=O)c2cccc(F)c2n(C)c1=O` [BMS-986142, 6-fluoro-5-(R)-(3-(S)-(8-fluoro-1-methyl-2,4-dioxo-1,2-dihydroquinazolin-3(4H)-yl)-2-methylphenyl)-2-(S)-(2-hydroxypropan-2-yl)-2,3,4,9-tetrahydro-1H-carbazole-8-carboxamide] the “AE: Headache” value ([1]; MAD 200 mg QD, n = 6) was 0 n (%), the “AE: Psychotic disorder” value ([1]; MAD 200 mg QD, n = 6) was 0 n (%) and the “AE: Rash” value ([1]; MAD 200 mg QD, n = 6) was 0 n (%). For the same compound, the “AE: Somnolence” value ([1]; MAD 200 mg QD, n = 6) was 0 n (%), the “AE: Syncope” value ([1]; MAD 200 mg QD, n = 6) was 0 n (%) and the “AE: Thermal burn” value ([1]; MAD 200 mg QD, n = 6) was 0 n (%). The “AE: Throat irritation” value ([1]; MAD 200 mg QD, n = 6) was 0 n (%), the “AE: Upper respiratory tract infection” value ([1]; MAD 200 mg QD, n = 6) was 1 (16.7) n (%) and the “Total subjects with an event” value ([1]; MAD 200 mg QD, n = 6) was 1 (16.7) n (%). The “AE SOC: Ear and labyrinth disorders” value ([1]; MAD 350 mg QD, n = 6) was 0 n (%), the “AE SOC: Eye disorders” value ([1]; MAD 350 mg QD, n = 6) was 0 n (%) and the “AE SOC: Gastrointestinal Disorders” value ([1]; MAD 350 mg QD, n = 6) was 0 n (%). For the same compound, the “AE SOC: Infections and infestations” value ([1]; MAD 350 mg QD, n = 6) was 0 n (%), the “AE SOC: Injury, poisoning and procedural complications” value ([1]; MAD 350 mg QD, n = 6) was 0 n (%) and the “AE SOC: Investigations” value ([1]; MAD 350 mg QD, n = 6) was 0 n (%). The “AE SOC: Musculoskeletal and connective tissue disorders” value ([1]; MAD 350 mg QD, n = 6) was 0 n (%), the “AE SOC: Nervous system disorders” value ([1]; MAD 350 mg QD, n = 6) was 0 n (%) and the “AE SOC: Psychiatric disorders” value ([1]; MAD 350 mg QD, n = 6) was 0 n (%). The “AE SOC: Respiratory, thoracic and mediastinal disorders” value ([1]; MAD 350 mg QD, n = 6) was 0 n (%), the “AE SOC: Skin and subcutaneous tissue disorders” value ([1]; MAD 350 mg QD, n = 6) was 1 (16.7) n (%) and the “AE: Abdominal pain” value ([1]; MAD 350 mg QD, n = 6) was 0 n (%). For the same compound, the “AE: Back pain” value ([1]; MAD 350 mg QD, n = 6) was 0 n (%), the “AE: Blood creatinine phosphokinase increased” value ([1]; MAD 350 mg QD, n = 6) was 0 n (%) and the “AE: Cerumen impaction” value ([1]; MAD 350 mg QD, n = 6) was 0 n (%). For the same compound, the “AE: Cough” value ([1]; MAD 350 mg QD, n = 6) was 0 n (%), the “AE: Diarrhoea” value ([1]; MAD 350 mg QD, n = 6) was 0 n (%) and the “AE: Eye pain” value ([1]; MAD 350 mg QD, n = 6) was 0 n (%). For the same compound, the “AE: Haemoptysis” value ([1]; MAD 350 mg QD, n = 6) was 0 n (%), the “AE: Headache” value ([1]; MAD 350 mg QD, n = 6) was 0 n (%) and the “AE: Psychotic disorder” value ([1]; MAD 350 mg QD, n = 6) was 0 n (%). The “AE: Rash” value ([1]; MAD 350 mg QD, n = 6) was 1 (16.7) n (%), the “AE: Somnolence” value ([1]; MAD 350 mg QD, n = 6) was 0 n (%) and the “AE: Syncope” value ([1]; MAD 350 mg QD, n = 6) was 0 n (%). The “AE: Thermal burn” value ([1]; MAD 350 mg QD, n = 6) was 0 n (%), the “AE: Throat irritation” value ([1]; MAD 350 mg QD, n = 6) was 0 n (%) and the “AE: Upper respiratory tract infection” value ([1]; MAD 350 mg QD, n = 6) was 0 n (%). The “Total subjects with an event” value ([1]; MAD 350 mg QD, n = 6) was 1 (16.7) n (%), the “AE SOC: Ear and labyrinth disorders” value ([1]; MAD any dose, n = 24) was 1 (4.2) n (%) and the “AE SOC: Eye disorders” value ([1]; MAD any dose, n = 24) was 1 (4.2) n (%). The “AE SOC: Gastrointestinal Disorders” value ([1]; MAD any dose, n = 24) was 2 (8.3) n (%), the “AE SOC: Infections and infestations” value ([1]; MAD any dose, n = 24) was 1 (4.2) n (%) and the “AE SOC: Injury, poisoning and procedural complications” value ([1]; MAD any dose, n = 24) was 1 (4.2) n (%). The “AE SOC: Investigations” value ([1]; MAD any dose, n = 24) was 0 n (%), the “AE SOC: Musculoskeletal and connective tissue disorders” value ([1]; MAD any dose, n = 24) was 1 (4.2) n (%) and the “AE SOC: Nervous system disorders” value ([1]; MAD any dose, n = 24) was 1 (4.2) n (%). The “AE SOC: Psychiatric disorders” value ([1]; MAD any dose, n = 24) was 1 (4.2) n (%), the “AE SOC: Respiratory, thoracic and mediastinal disorders” value ([1]; MAD any dose, n = 24) was 2 (8.3) n (%) and the “AE SOC: Skin and subcutaneous tissue disorders” value ([1]; MAD any dose, n = 24) was 1 (4.2) n (%). For the same compound, the “AE: Abdominal pain” value ([1]; MAD any dose, n = 24) was 1 (4.2) n (%), the “AE: Back pain” value ([1]; MAD any dose, n = 24) was 1 (4.2) n (%) and the “AE: Blood creatinine phosphokinase increased” value ([1]; MAD any dose, n = 24) was 0 n (%). The “AE: Cerumen impaction” value ([1]; MAD any dose, n = 24) was 1 (4.2) n (%), the “AE: Cough” value ([1]; MAD any dose, n = 24) was 1 (4.2) n (%) and the “AE: Diarrhoea” value ([1]; MAD any dose, n = 24) was 1 (4.2) n (%). The “AE: Eye pain” value ([1]; MAD any dose, n = 24) was 1 (4.2) n (%), the “AE: Haemoptysis” value ([1]; MAD any dose, n = 24) was 1 (4.2) n (%) and the “AE: Headache” value ([1]; MAD any dose, n = 24) was 1 (4.2) n (%). For the same compound, the “AE: Psychotic disorder” value ([1]; MAD any dose, n = 24) was 1 (4.2) n (%), the “AE: Rash” value ([1]; MAD any dose, n = 24) was 1 (4.2) n (%) and the “AE: Somnolence” value ([1]; MAD any dose, n = 24) was 0 n (%). The “AE: Syncope” value ([1]; MAD any dose, n = 24) was 0 n (%), the “AE: Thermal burn” value ([1]; MAD any dose, n = 24) was 1 (4.2) n (%) and the “AE: Throat irritation” value ([1]; MAD any dose, n = 24) was 1 (4.2) n (%). The “AE: Upper respiratory tract infection” value ([1]; MAD any dose, n = 24) was 1 (4.2) n (%), the “Total subjects with an event” value ([1]; MAD any dose, n = 24) was 8 (33.3) n (%) and the “Number of AEs reported” value [1, 2] was 13 AEs. For the same compound, the “Participants with AEs” value [1, 2] was 8 participants, the “AE: Cough” value [1, 3] was 1 (4.2) n (%) and the “AE: Diarrhea” value [1, 3] was 1 (4.2) n (%). For the same compound, the “AE: Dizziness” value [1, 3] was 0 n (%), the “AE: Headache/tension headache” value [1, 3] was 1 (4.2) n (%) and the “AE: Nausea” value [1, 3] was 0 n (%). For the same compound, the “AE: Thermal burns” value [1, 3] was 1 (4.2) n (%), the “AE: Upper respiratory tract infection” value [1, 3] was 1 (4.2) n (%) and the “Subjects with AEs” value [1, 3] was 8 (33.3) n (%). The IC50 (CD69 expression) was 90 nM.
